From US12036262B2, “Edible plant-derived nanoparticles for regulation of gut microbiota” (University of Louisville Research Foundation, Inc., priority 2017, dated 2024)

Assays:
SpaC = SpaC expression in LGG (qPCR, Western blotting); assay type: cell-based, Lactobacillus rhamnosus; conditions: compared with scrambled miRNA
Procedure: Quantitative Real-Time PCR for RNA Expression. The quantity of mature miRNAs was determined with quantitative real-time PCR (qPCR) using a miScript II RT kit (QIAGEN Inc., Germantown, Maryland, United States of America) and miScript SYBR Green PCR Kit (QIAGEN) with QIAGEN 3′ universal primers. For analysis of gene mRNA expression, 1 μg of total RNA was reverse transcribed using SuperScript III reverse transcriptase (Invitrogen, Waltham, Massachusetts, United States of America), and quantitation was performed using SsoAdvanced™ Universal SYBR Green Supermix (Bio-Rad Laboratories, Inc., Hercules, California, United States of America) and the listed primers (Table 1) with SsoAdvanced™ Universal SYBR Green Supermix (Bio-Rad). qPCR was performed using a Bio-Rad CFX96 qPCR System with each reaction run in triplicate. Analysis and fold-changes were determined using the comparative threshold cycle (Ct) method. Changes in miRNA or mRNA expression were calculated as fold-change.
Western Blotting. LGG cells were treated as indicated in each individual Figure and harvested from 100-350 ml cultures by centrifugation at 5,000×g for 10 minutes. […] After the Alexa Fluor-647 (Invitrogen) conjugated secondary antibody incubation, the bands were visualized and analyzed using an Odyssey Imager (LI-COR, Lincoln, Nebraska, United States of America). […]

LGG = test: Bacterial translocation to peripheral blood and liver; assay type: in vivo; conditions: DSS-treated SPF and germ-free mice, compared with LGG alone
Procedure: Bacterial Translocation. Bacterial translocation from the murine gut to peripheral blood and liver was determined at the indicated times presented in the relevant figures after oral bacterial administration. Fifty microliters of anticoagulant blood were cultured on MRS agar for 48 h at 37° C. in an anaerobic chamber. Liver tissue samples were homogenized in 0.5% Triton X-100/PBS, and 100 μl of the homogenates were cultured on MRS agar plates. After 48 hours of incubation, CFUs were counted, and the results are expressed as number of bacteria detected/mL of blood or gram of liver.

[1] = system: SpaC fragment with ath-miR167a binding site; test: SpaC-pGFPuv GFP reporter in E. coli (FACS); assay type: cell-based
Procedure: Plasmid Construction and Mutagenesis. The SpaC fragment (339-800, LGG RS02140) spanning the sequences of the potential target (710-717) of GELN ath-miR167a was obtained by PCR with cDNA from LGG RNA. PCR was performed using a Bio-Rad thermal cycler T100. The 462-bp PCR product amplified by the primer pair SpaC-pGFPuv-F: 5′-[…]-3′ (SEQ ID NO: 1) and SpaC-pGFPuv-R: 5′-[…]-3′ (SEQ ID NO: 2) was ligated into the Sphl and Xbal restriction enzyme sites of a pGFPuv vector (Takara Bio/Clontech, Mountain View, California, United States of America) to obtain a green fluorescent protein (GFP) expression reporter. SpaC-pGFPuv fused with the SpaC gene fragment, which can be expressed in prokaryotic cells. To generate mutants of SpaC, the oligonucleotide primers SpaCMut-F, 5′-[…] […]
Flow Cytometry. […] Data were acquired using a BD FACSCalibur flow cytometer (BD Biosciences, San Jose, California, United States of America) and analyzed using FlowJo software (Tree Star Inc., Ashland, Oregon, United States of America). To visualize bacteria stained with PKH26/67 and transformed with SpaC-pGFPuv plasmid, the PKH26/67-positive and GFP-positive bacteria were detected by flow cytometry using a BD FACSCalibur flow cytometer (BD Biosciences, San Jose, California, United States of America), and data were analyzed using FlowJo software (Tree Star Inc., Ashland, Oregon, United States of America).

In the case of “ath-miR167a: GELN miRNA, SEQ ID NO: 9 (UGAAGCUGCCAGCAUGAUCUA; expressed or natural sequence)”, the “SpaC expression in LGG” value (SpaC) is reported as “significantly down-regulated”, the “LGG migration into bloodstream and liver” value (LGG) is reported as “significantly reduced LGG translocation into the peripheral blood” and the “GFP expression with mutation that disrupted the binding site” value [1] is reported as “entirely restored GFP expression”.
